The values below are quoted from earlier work in US20090196923A1, “CONTROLLED RELEASE FORMULATION COMPRISING ANTI-EPILEPTIC DRUGS” (priority 2006, published 2009).

Each structure is given as a SMILES string.

Take `NC(=O)N1c2ccccc2CC(=O)c2ccccc21` [Oxcarbazepine, 10, 11-dihydro-10-oxocarbamazepine]: the water solubility result is listed as “poor water solubility”.
